According to article PMC8397297 (ACS Chemical Neuroscience, 2021):
Read-outs that look alike come from different tables or passages of the source. One block for each compound: values may come before it.

Columns and labels:
mGAT2 [1] = biological target: T1, mGAT2 (Mus musculus, UniProt P31651); conditions: cited from earlier work; for remaining [3H]GABA uptake mGAT2: 100 μM inhibitor
T1 construct: expressed in transfected cells; host or cells: HEK-293
T1 sequence (P31651 1-614): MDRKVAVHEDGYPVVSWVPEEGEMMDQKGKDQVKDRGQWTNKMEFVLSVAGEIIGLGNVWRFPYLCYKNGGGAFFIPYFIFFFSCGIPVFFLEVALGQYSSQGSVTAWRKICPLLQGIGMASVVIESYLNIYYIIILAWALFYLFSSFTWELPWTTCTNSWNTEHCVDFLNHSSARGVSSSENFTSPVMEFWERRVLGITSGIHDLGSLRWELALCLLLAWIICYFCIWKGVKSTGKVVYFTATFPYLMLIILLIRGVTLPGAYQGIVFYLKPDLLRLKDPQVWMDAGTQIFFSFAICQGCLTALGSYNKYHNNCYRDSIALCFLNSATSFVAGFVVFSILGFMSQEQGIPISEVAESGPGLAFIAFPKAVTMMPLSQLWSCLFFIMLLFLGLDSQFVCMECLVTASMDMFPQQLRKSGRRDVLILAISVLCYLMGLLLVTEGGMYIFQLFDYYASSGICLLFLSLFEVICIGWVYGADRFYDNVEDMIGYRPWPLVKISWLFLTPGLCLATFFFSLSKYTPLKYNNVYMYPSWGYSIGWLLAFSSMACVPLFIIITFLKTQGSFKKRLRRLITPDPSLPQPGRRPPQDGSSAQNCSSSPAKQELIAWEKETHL

mGAT4 [2] = biological target: T2, mGAT4 (Mus musculus, UniProt P31650); conditions: cited from earlier work
T2 construct: expressed in transfected cells; host or cells: HEK-293
T2 sequence (P31650 1-627): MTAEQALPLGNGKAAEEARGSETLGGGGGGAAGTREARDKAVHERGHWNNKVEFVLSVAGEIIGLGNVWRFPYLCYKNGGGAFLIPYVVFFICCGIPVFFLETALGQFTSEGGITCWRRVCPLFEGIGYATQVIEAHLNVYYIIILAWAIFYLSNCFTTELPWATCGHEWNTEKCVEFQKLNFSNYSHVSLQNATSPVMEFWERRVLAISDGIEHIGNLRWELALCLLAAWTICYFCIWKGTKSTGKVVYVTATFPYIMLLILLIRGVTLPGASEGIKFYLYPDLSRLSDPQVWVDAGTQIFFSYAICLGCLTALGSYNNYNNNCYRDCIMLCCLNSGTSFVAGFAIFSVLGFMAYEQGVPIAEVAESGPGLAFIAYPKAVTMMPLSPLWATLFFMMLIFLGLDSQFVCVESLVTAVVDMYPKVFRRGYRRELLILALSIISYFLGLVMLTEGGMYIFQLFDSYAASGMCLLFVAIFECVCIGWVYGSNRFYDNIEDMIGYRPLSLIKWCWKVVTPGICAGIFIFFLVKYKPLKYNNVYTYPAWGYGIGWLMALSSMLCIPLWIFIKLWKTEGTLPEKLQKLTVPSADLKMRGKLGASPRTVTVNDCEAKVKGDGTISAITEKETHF

mGAT1 [3] = biological target: T3, mGAT1 (Mus musculus, UniProt P31648); conditions: Figure 2; cited from earlier work
T3 construct: expressed in transfected cells; host or cells: HEK-293

mGAT3 [4] = biological target: T4, mGAT3 (Mus musculus, UniProt P31649); conditions: cited from earlier work
T4 construct: expressed in transfected cells; host or cells: HEK-293
T4 sequence (P31649 1-602): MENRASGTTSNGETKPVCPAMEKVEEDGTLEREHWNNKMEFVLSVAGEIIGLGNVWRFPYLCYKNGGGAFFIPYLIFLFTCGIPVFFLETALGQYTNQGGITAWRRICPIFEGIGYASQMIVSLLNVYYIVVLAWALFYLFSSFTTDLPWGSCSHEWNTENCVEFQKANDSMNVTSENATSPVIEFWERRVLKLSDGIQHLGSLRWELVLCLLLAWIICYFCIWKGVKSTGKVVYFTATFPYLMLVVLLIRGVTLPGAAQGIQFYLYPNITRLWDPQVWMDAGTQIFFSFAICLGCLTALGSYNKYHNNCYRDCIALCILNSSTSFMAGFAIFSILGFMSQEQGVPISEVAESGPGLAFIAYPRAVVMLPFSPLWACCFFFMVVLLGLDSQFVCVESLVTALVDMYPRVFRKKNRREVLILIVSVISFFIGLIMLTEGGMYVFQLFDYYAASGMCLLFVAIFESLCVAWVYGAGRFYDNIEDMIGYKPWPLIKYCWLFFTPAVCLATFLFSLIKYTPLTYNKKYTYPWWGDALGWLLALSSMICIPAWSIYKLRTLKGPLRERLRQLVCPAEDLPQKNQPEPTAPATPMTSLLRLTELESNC

mGAT1 [5] = biological target: T3, mGAT1; conditions: 100 μM inhibitor; cited from earlier work
mGAT1 [6] = biological target: T3, mGAT1; assay: [3H]GABA uptake assay in HEK-293 cells stably expressing mGAT1; type: cell-based; conditions: in the presence of 100 μM inhibitor
mGAT3 [7] = biological target: T4, mGAT3; assay: [3H]GABA uptake assay in HEK-293 cells stably expressing mGAT3; type: cell-based; conditions: for IC50: [3H]GABA uptake, read-out: pIC50 ± SEM mGAT3 (converted); for remaining [3H]GABA uptake mGAT3: in the presence of 100 μM inhibitor
mGAT4 [8] = biological target: T2, mGAT4; assay: [3H]GABA uptake assay in HEK-293 cells stably expressing mGAT4; type: cell-based; conditions: for IC50: [3H]GABA uptake, read-out: pIC50 ± SEM mGAT4 (converted); for remaining [3H]GABA uptake mGAT4: in the presence of 100 μM inhibitor
mGAT2 [9] = biological target: T1, mGAT2; assay: [3H]GABA uptake assay in HEK-293 cells stably expressing mGAT2; type: cell-based; conditions: in the presence of 100 μM inhibitor
mGAT1 [10] = biological target: T3, mGAT1; assay: competitive MS binding assay with NO711 as unlabeled marker (LC-ESI-MS/MS); conditions: for remaining NO711 binding mGAT1: in the presence of 100 μM inhibitor
Procedure, shortened: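 Competitive MS binding with unlabeled NO711 as marker, quantified by LC–ESI-MS/MS. Compounds screened at 100 μM for inhibition of marker binding.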

SMILES: COc1ccc(C(OCCN2CCC[C@H](C(=O)O)C2)(c2ccc(OC)cc2)c2ccc(OC)cc2)cc1 [(S)-SNAP-5114, (S)-1-{2-[Tris(4-methoxyphenyl)methoxy]ethyl}piperidine-3-carboxylic acid]
remaining [3H]GABA uptake mGAT2 (mGAT2 [1]): 100 μM: 56%
mGAT2 % (100μM) (mGAT2 [1]): 56%

SMILES: O=C(O)[C@@H]1CCCN(CCC#Cc2ccccc2-c2ccc(F)cc2Cl)C1 [Compound 7]
mGAT2 % (100μM) (mGAT2 [1]): 55%
pIC50 mGAT4 (mGAT4 [2]; Figure 2): 4.29
pIC50 mGAT1 (mGAT1 [3]): 7.68
pIC50 mGAT3 (mGAT3 [4]; Figure 2): 4.56

SMILES: COc1ccc(C(OCCN2CCC[C@H](C(=O)O)C2)(c2ccc(OC)cc2)c2ccc(-c3ccc(C=O)cc3)cc2)cc1 [Compound 11]
mGAT2 % (100μM) (mGAT2 [1]): 73%
pIC50 mGAT3 (mGAT3 [4]; Figure 2): 5.16

SMILES: O=C1Nc2ccc(-c3cccs3)cc2C1=O [Compound 12]
pIC50 mGAT2 (mGAT2 [1]; Figure 2): 3.21
pIC50 mGAT1 (mGAT1 [3]): < 3

SMILES: Cc1ccsc1C(=CCCN(C)C(CCO)C(=O)NCc1ccccc1Cl)c1sccc1C (stereo not drawn) [Compound 13]
remaining NO711 binding mGAT1 (mGAT1 [5]): 100 μM: 77%
pIC50 mGAT2 (mGAT2 [1]; [3H]GABA uptake): 4.98 ± 0.05
pIC50 mGAT3 (mGAT3 [4]; [3H]GABA uptake): 5.31 ± 0.04

remaining [3H]GABA uptake mGAT1 (mGAT1 [6]): 100 μM: 52%
IC50 (mGAT3 [7]): 21.9 µM
IC50 (mGAT4 [8]): 63.1 µM
remaining [3H]GABA uptake mGAT2 (mGAT2 [9]): 100 μM: 54%
remaining NO711 binding mGAT1 (mGAT1 [10]): 100 μM: 103%
SMILES: CCOC(=O)[C@H](C)N(C)CCC=C1c2ccccc2C=Cc2ccccc21 [Compound 71, Ethyl N-(3-(5H-Dibenzo[a,d][7]annulen-5-ylidene)propyl)-N-methylalaninate]

remaining [3H]GABA uptake mGAT1 (mGAT1 [6]): 100 μM: 98%
remaining [3H]GABA uptake mGAT3 (mGAT3 [7]): 100 μM: 86%
remaining [3H]GABA uptake mGAT4 (mGAT4 [8]): 100 μM: 97%
remaining [3H]GABA uptake mGAT2 (mGAT2 [9]): 100 μM: 63%
remaining NO711 binding mGAT1 (mGAT1 [10]): 100 μM: 109%
SMILES: C[C@@H](C(=O)OCc1ccccc1)N(C)CCC=C1c2ccccc2C=Cc2ccccc21 [Compound 72, Benzyl N-(3-(5H-Dibenzo[a,d][7]annulen-5-ylidene)propyl)-N-methylalaninate]

remaining [3H]GABA uptake mGAT1 (mGAT1 [6]): 100 μM: 55%
IC50 (mGAT3 [7]): 25.1 µM
IC50 (mGAT4 [8]): 52.5 µM
remaining [3H]GABA uptake mGAT2 (mGAT2 [9]): 100 μM: 52%
remaining NO711 binding mGAT1 (mGAT1 [10]): 100 μM: 94%
SMILES: CCOC(=O)C(C)N(C)CCC=C(c1sccc1C)c1sccc1C (stereo not drawn) [Compound 73, Ethyl 2-((4,4-Bis(3-methylthiophen-2-yl)but-3-en-1-yl)(methyl)amino)propanoate]

remaining [3H]GABA uptake mGAT1 (mGAT1 [6]): 100 μM: 55%
remaining [3H]GABA uptake mGAT3 (mGAT3 [7]): 100 μM: 62%
remaining [3H]GABA uptake mGAT4 (mGAT4 [8]): 100 μM: 77%
remaining [3H]GABA uptake mGAT2 (mGAT2 [9]): 100 μM: 55%
Ki (mGAT1 [10]; MS binding assay, read-out: pKi ± SEM mGAT1 (converted)): 28.8 µM
SMILES: C[C@@H](C(=O)O)N(C)CCC=C1c2ccccc2C=Cc2ccccc21 [Compound 74, N-(3-(5H-Dibenzo[a,d][7]annulen-5-ylidene)propyl)-N-methylalanine]

remaining [3H]GABA uptake mGAT1 (mGAT1 [6]): 100 μM: 71%
remaining [3H]GABA uptake mGAT3 (mGAT3 [7]): 100 μM: 52%
remaining [3H]GABA uptake mGAT4 (mGAT4 [8]): 100 μM: 60%
remaining [3H]GABA uptake mGAT2 (mGAT2 [9]): 100 μM: 59%
remaining NO711 binding mGAT1 (mGAT1 [10]): 100 μM: 81%
SMILES: Cc1ccsc1C(=CCCN(C)C(C)C(=O)O)c1sccc1C (stereo not drawn) [Compound 75, 2-((4,4-Bis(3-methylthiophen-2-yl)but-3-en-1-yl)(methyl)amino)propanoic Acid]

SMILES: O=C(O)C1=CCCN(CCO/N=C/c2ccccc2-c2ccc(Cl)cc2Cl)C1 [DDPM-2571]
pIC50 mGAT3 (mGAT3 [4]; [3H]GABA uptake): 4.35

SMILES: Cc1ccsc1C(=CCCN1CCC[C@@H](C(=O)O)C1)c1sccc1C [tiagabine, (R)-1-[4,4-bis(3-methyl-2-thienyl)-3-butenyl]-3-piperidinecarboxylic acid]
remaining [3H]GABA uptake mGAT2 (mGAT2 [1]): 100 μM: 52%
remaining [3H]GABA uptake mGAT4 (mGAT4 [2]; 100 μM inhibitor): 100 μM: 73%
mGAT4 % (100μM) (mGAT4 [2]; 100μM): 73%
remaining [3H]GABA uptake mGAT3 (mGAT3 [4]; 100 μM inhibitor): 100 μM: 64%
mGAT3 % (100μM) (mGAT3 [4]; 100μM): 64%

SMILES: NCCC(=O)O [β-alanine]
pIC50 mGAT2 (mGAT2 [1]; Figure 2): 2.96
